Like-named read-outs stand apart in the source and are kept apart here.
Assays:
[1] = tested on: primary human hepatocytes (PHH); experiment: Cytotoxicity (cellular ATP, CellTiter-Glo) in 2D plated primary human hepatocytes, 48 h treatment; assay type: cell-based; settings: for IC50: Hepatocyte, 2D primary human hepatocytes (lot IZT), 48 h treatment, total cellular ATP content, read-out: Geomean IC50;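 on all read-outs here: 384-well plates, luminescence read-out, normalized to vehicle wells with 1% DMSO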
[2] = tested on: 3D human liver microtissues (hLiMT); experiment: Cytotoxicity (cellular ATP, CellTiter-Glo 2.0) in 3D human liver microtissues, 14 day repeat-dose treatment; settings: for IC50: Homo sapiens, 336 h
[3] = cited from earlier work
[4] = tested on: 3D human liver microtissues (hLiMT); experiment: Cytotoxicity (cellular ATP) in 3D human liver microtissues, 5-6 days treatment; assay type: cell-based; settings: Homo sapiens; hLiMT, 5/6 days, ATP content; read-out: IC50 SHORT;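 further: Hanging-drop spheroids, seven-point dilution series, re-dosed on day 3, CellTiter-Glo 2.0 luminescence, normalized to 0.5 or 1% DMSO vehicle controls on the same plate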
[5] = tested on: 3D human liver microtissues (hLiMT); experiment: alpha-GST release into hLiMT supernatant (ELISA); assay type: cell-based; settings: 336 h, 14 days, release into medium, read-out: IC50 (α-GST assay)
[6] = ref Chen et al 2016 / Chen et al 2011; cited from earlier work
[7] = cited from earlier work; for P/N (DILI positive / DILI negative): P = DILI severity categories 1, 2 and 3, N = categories 4 and 5; for DILI category: clinical, from literature and product labels
[8] = Clinical DILI severity categorization and DILI pattern; settings: P = DILI severity categories 1, 2 and 3; N = categories 4 and 5
[9] = Hepatocyte, read-out: Geomean IC50 [µM]
[10] = human Cmax total, used for IC50/Cmax
[11] = human total plasma Cmax, ref literature values
[12] = Table 1, ref Garside et al. (2014)
[13] = clinical DILI severity category, 1-5
[14] = table S-5, ref Garside et al. 2014
[15] = table S-4, ref Garside et al. 2014

SMILES | IC50 [1] | IC50 [2, 9] | Cmax [3, 10] | Cmax [3, 11] | IC50 [4] | FDA DILI Classification DILI severity score [6] | LTKB DILI classification [6] | P/N (DILI positive / DILI negative) [7] | DILI severity category [7, 12] | DILI severity category [7, 13] | DILI category ([7]; ref Garside et al. 2014) | P/N (DILI positive / DILI negative) [8] | DILI severity category [7, 14] | also measured
CC(=O)Nc1ccc(O)cc1 [Acetaminophen] | 4600 µM | ~573 µM | 165000 nM | 165000 nM | 911 µM |  |  |  |  |  |  |  |  | IC50 ([2]; read-out: IC50 (ATP-assay)): 732 µM; IC50 ([2]; read-out: IC50 LONG): 573 µM; IC50 [5]: 3260 µM
CN1[C@@H]2CC[C@H]1C[C@@H](OC(c1ccccc1)c1ccccc1)C2 [Benztropine] |  |  | 585 nM | 590 nM |  | 0 | no DILI concern | N | 5: No DILI (N = 25) | 5. No DILI | 5. No DILI | N |  | classification at 50× MOS threshold ([1]; PHH 48 h): false positive; classification at 50× MOS threshold ([2]; hLiMT 14 days): false positive
CCCCNc1cc(C(=O)O)cc(S(N)(=O)=O)c1Oc1ccccc1 [Bumetanide] | > 10 µM | > 10 µM | 84.8 nM | 84.8 nM |  | 3 | Ambiguous DILI concern | N | 4: Enzyme elevations in clinic (N = 16) | 4. Enzyme Elevations in Clinic | 4. Enzyme Elevations in Clinic | N |  | 
CC(C)(C)NCC(O)COc1cccc2c1CC(O)C(O)C2 (stereo not shown) [Nadolol] | > 100 µM | > 100 µM | 810 nM | 810 nM |  | 3 | Ambiguous DILI concern | N | 4: Enzyme elevations in clinic (N = 16) | 4. Enzyme Elevations in Clinic | 4. Enzyme Elevations in Clinic | N | 4. Enzyme Elevations in Clinic | 
[H]/N=C(/N)N[C@H]1[C@H](O)[C@@H](O)[C@H](O[C@@H]2O[C@@H](C)[C@](O)(C=O)[C@H]2O[C@@H]2O[C@@H](CO)[C@H](O)[C@@H](O)[C@@H]2NC)[C@@H](N/C(N)=N\[H])[C@@H]1O [Streptomycin] | > 100 µM | > 100 µM | 64500 nM | 64500 nM | 100 µM |  | no DILI concern | N | 5: No DILI (N = 25) | 5. No DILI | 5. No DILI | N |  | P/N ([7]; binary DILI classification, table S-4): N; DILI severity category [7, 15]: 5
Cc1ccc(Cl)c(Nc2ccccc2C(=O)O)c1Cl [Meclofenamate] | 292 µM | ~23.1 µM | 81100 nM | 81100 nM |  | 3 | Ambiguous DILI concern | N | 4: Enzyme elevations in clinic (N = 16) | 4. Enzyme Elevations in Clinic | 4. Enzyme Elevations in Clinic | N |  | classification at 10× MOS threshold ([1]; PHH 48 h): false positive; classification at 10× MOS threshold ([2]; hLiMT 14 days): false positive
CCOC(=O)c1ncn2c1CN(C)C(=O)c1cc(F)ccc1-2 [Flumazenil] | > 250 µM | > 250 µM | 1120 nM | 1120 nM |  | 0 | no DILI concern | N | 5: No DILI (N = 25) | 5. No DILI | 5. No DILI | N |  | 
C[C@@H]1C[C@H]2[C@@H]3CCC4=CC(=O)C=C[C@]4(C)[C@@]3(F)[C@@H](O)C[C@]2(C)[C@@]1(O)C(=O)CO [Dexamethasone] | > 100 µM | > 100 µM | 220 nM | 220 nM |  | 3 | Ambiguous DILI concern | N | 4: Enzyme elevations in clinic (N = 16) | 4. Enzyme Elevations in Clinic | 4. Enzyme Elevations in Clinic | N | 4. Enzyme Elevations in Clinic | 
CC(C)(C)NC[C@H](O)COc1ccccc1C1CCCC1 [Penbutolol] | 15.7 µM | ~39 µM | 1030 nM | 1030 nM |  |  | no DILI concern | N | 4: Enzyme elevations in clinic (N = 16) | 4. Enzyme Elevations in Clinic | 4. Enzyme Elevations in Clinic | N |  | classification at 100 μM IC50 threshold ([1]; PHH 48 h): false positives; classification at 100 μM IC50 threshold ([2]; hLiMT 14 days): false positives
O=C(O)Cc1ccccc1Nc1c(Cl)cccc1Cl [Diclofenac] | > 500 µM | ~61.4 µM | 10100 nM | 10100 nM | 100 µM |  |  |  |  |  |  |  |  | IC50 ([2]; read-out: IC50 (ATP-assay)): 45.6 µM; IC50 ([2]; read-out: IC50 LONG): 61.4 µM; IC50 [5]: 210 µM
C1CCC(C(CC2CCCCN2)C2CCCCC2)CC1 (stereo not shown) [Perhexiline] | 11.2 µM | ~2.6 µM |  |  | 4.2 µM | 8 | most DILI concern |  | 1: Severe clinical DILI (N = 23) | 1. Severe Clinical DILI | 1. Severe Clinical DILI |  | 1. Severe Clinical DILI | DILI severity category [7, 15]: 1; IC50 ([2]; read-out: IC50 (ATP-assay)): 2.01 µM; IC50 ([2]; read-out: IC50 LONG): 2.5 µM; IC50 [5]: 6.26 µM
CNC1(C)C2CCC(C2)C1(C)C (stereo not shown) [Mecamylamine] | > 50 µM | > 25 µM |  | 140 nM |  | 0 | no DILI concern | N | 5: No DILI (N = 25) | 5. No DILI | 5. No DILI | N |  | 
C[N+](C)(C)C[C@H](O)CC(=O)[O-] [Levocarnitine] | > 10000 µM | > 10000 µM | 85700 nM | 85700 nM |  |  | no DILI concern | N | 5: No DILI (N = 25) | 5. No DILI | 5. No DILI | N | 5. No DILI | 
